{
  "source": "patent US20230310634A1",
  "about": "“ANTI-HUMAN VISTA ANTIBODIES AND USE THEREOF” (IMMUNEXT, INC., priority 2020, published 2023)",
  "key": {"[1]": {"test": "Plasma corticosterone levels after repeated treatment", "format": "in vivo, mice", "settings": "bleed on day 5", "experimental": "Based on the foregoing we assessed the impact of long-term treatment with an exemplary antibody drug conjugate (ADC) INX201J, and an anti-human VISTA monoclonal antibody linked to a glucocorticoid (GC) payload, on the HPA axis, specifically the corticosterone basal levels. […] The experiment was performed in female mice that were first acclimated for a week to a specific handler that would carry subsequently all injections and bleed to limit stress-induced changes in basal level of GC.\nOn day 5, mice were bled and their corticosterone levels assessed by ELISA.\nThe experiment was performed in female hVISTA KI mice. […] A control group was included that received daily PBS injections. On day 5, mice were bled and their plasma corticosterone levels assessed by ELISA.\nThe ELISA was conducted following the manufacturer's included protocol using Arbor Assays (cat #K014-H5) Corticosterone 5 pack ELISA Kit."}, "FKBP5 [2]": {"tested_on": "FKBP5", "test": "FKBP5 transcription in peritoneal resident macrophages and spleen monocytes after in vivo treatment", "set-up": "species or system mice", "settings": "from other studies (previous example)", "experimental": "ADCs were then injected from 17 h to 7 days before mouse euthanasia and cell isolation.\nAfter euthanasia, mice were injected in the peritoneal cavity with 7 ml of PBS/0.5% BSA/2 mM EDTA. After a brief massage of the peritoneum, a small incision was performed and the peritoneal lavage collected. PRM were isolated using negative selection (Miltenyi kit, ref 130-110-434). Spleen were dissected and dissociated mechanically; monocytes were isolated using […] (Stem Cell, EasySep™ Mouse CD11 b Positive Selection Kit II).\nCell pellets from different tissues were resuspended in 0.4 ml RNeasy lysis buffer from RNeasy Plus Mini kit (Qiagen, PN: 74136) and homogenize with 20G needle for 5 times. RNA was isolated following manufacturer's instructions and RNA eluted in […] H2O (RNase/DNase free). RNA concentration was assessed on Nanodrop.\nReverse transcription was done using Taqman reverse transcription reagents (#N8080234) and following manufacturer's instructions. Quantitative Real-Time PCR was done using Taqman master mix 2× kit (#4369016) and Taqman primers for mouse FKBP5 (Mm00487401_m1), and mouse HPRT as housekeeping gene (Mm446968_m1) and run on a QuantStudio3 from Applied Biosystem. […]"}, "FKBP5 [3]": {"tested_on": "FKBP5", "test": "FKBP5 transcriptional activation in isolated human Tregs (qRT-PCR)", "format": "cell-based", "settings": "Experiment 3; 20 nM payload or molar equivalent; 2 donors", "excerpt": "(§1) To monitor/confirm GC delivery and activity, we measured by quantitative Real Time PCR (qRT-PCR) the transcriptional activation of FKBP5 that is a direct and robust biomarker of glucocorticoid activity (JCEM 101: 4305-4312, 2016). We conducted this assessment on isolated human monocytes, regulatory T cells (T regs) and B cells following in vitro treatment with ADCs.\nFor monocytes vs B cell analyses, one blood donor collection was used for the single drug concentration experiment; blood from a separate single donor collection was used to assess drug dose response. For the regulatory T cell (Treg) analysis, blood from two separate donors was used.\n(§2) The various immune populations were isolated using different cell isolation kits and following manufacturer instructions: • EasySep Human monocyte enrichment kit without CD16 depletion (StemCell cat #19058) • Pan B cell isolation kit, human (Miltenyi Biotec, 130-101-638) • EasySep™ Human CD4^+ CD127 low CD49d− regulatory T cell enrichment Kit (StemCell cat #19232) […]\n(§3) After one wash with PBS, RNA was isolated from cell pellets using either the RNeasy Plus Mini kit (Qiagen, PN: 74136) or NucleoSpin RNA Plus (Macherey-Nagel #740984.250). […] RNA concentration was assessed by UV spectroscopy using a Nanodrop 2000. […]\n(§4) Quantitative Real-Time PCR was done using Taqman master mix 2× kit (#4369016) and run on a QuantStudio3 from Applied Biosystem. […]"}, "[4]": {"tested_on": "LPS stimulated human PBMCs", "test": "In vitro potency of steroid payloads in LPS stimulated human PBMCs (IL-1β, IL-6 ELISA)", "format": "cell-based"}, "[5]": {"settings": "mouse, in vivo; cited from earlier work"}, "FKBP5 [6]": {"tested_on": "FKBP5", "test": "FKBP5 transcriptional activation in isolated human B cells (qRT-PCR)", "format": "cell-based", "settings": "Experiment 1; 20 nM payload or molar equivalent; 1 day; relative to no-treatment control", "excerpt": "as §1\n(§5) Monocytes or B cells were isolated from healthy donor blood samples and treated with free steroid, anti-VISTA conjugated steroid, or conjugated isotype control. RNA was isolated, and change in FKBP5 transcript level assessed by qPCR.\nas §2, §3, §4"}, "FKBP5 [7]": {"tested_on": "FKBP5", "test": "FKBP5 transcriptional activation in isolated human monocytes (qRT-PCR)", "format": "cell-based", "settings": "Experiment 1; 20 nM payload or molar equivalent; 1 day; relative to no-treatment control", "excerpt": "as §1, §5, §2, §3, §4"}},
  "note": "“Also recorded” adds a separate entry of the source.",
  "data": [
    {"compound": "C[C@@H]1C[C@H]2[C@@H]3CCC4=CC(=O)C=C[C@]4(C)[C@@]3(F)[C@@H](O)C[C@]2(C)[C@@]1(O)C(=O)CO", "note": "[Dex, Dexamethasone]", "values": [
      {"measurement": "basal plasma corticosterone levels", "setting": "[1]; Dex 0.2 mg/Kg daily for 4 days", "value": "limited though significant impact"},
      {"measurement": "basal plasma corticosterone levels", "setting": "[1]; Dex 2 mg/Kg daily for 4 days", "value": "dramatically decreased"},
      {"measurement": "pharmacodynamic range", "setting": "FKBP5 [2]", "value": "< 24", "unit": "h"}
    ]},
    {"compound": "C[C@]12C=CC(=O)C=C1CC[C@@H]1[C@@H]2[C@@H](O)C[C@@]2(C)[C@H]1C[C@H]1O[C@@H](c3ccc(CC45CC(N)(C4)C5)cc3)O[C@]12C(=O)CO", "note": "[INX-SM-3, (6aR,6bS,7S,8aS,8bS,10R,11aR,12aS,12bS)-10-(4-((3-aminobicyclo[1.1.1]pentan-1-yl)methyl)phenyl)-7-hydroxy-8b-(2-hydroxyacetyl)-6a,8a-dimethyl-1,2,6a,6b,7,8,8a,8b,11a,12,12a,12b-dodecahydro-4H-naphtho[2′,1′:4,5]indeno[1,2-d][1,3]dioxol-4-one]", "values": [
      {"measurement": "FKBP5 transcription in Tregs", "setting": "FKBP5 [3]", "value": "increased FKBP5 transcription"},
      {"measurement": "steroid potency as free payloads in LPS-activated human PBMCS (conclusions)", "setting": "[4]", "value": "varying degrees of dose dependent steroid potency"},
      {"measurement": "potency relative to the other compounds of the experiment", "setting": "[4]; 1 ng/mL LPS, 24 hr", "value": "most potent compound among these three; also recorded: most potent compound among these compounds tested"},
      {"measurement": "IL-1β and IL-6 production", "setting": "[4]; Experiment 1, 1000-1 nM, 1 ng/mL LPS, 24 hr, n=1 donor", "value": "inhibit both IL-1β and IL-6 production"},
      {"measurement": "IL-1β production", "setting": "[4]; Experiment 2, 1000-1 nM, 1 ng/mL LPS, 24 hr, n=1 donor", "value": "show inhibition in IL-1β production"}
    ]},
    {"compound": "C[C@@H]1C[C@H]2[C@@H]3CCC4=CC(=O)C=C[C@]4(C)[C@@]3(F)[C@@H](O)C[C@]2(C)[C@@]1(O)C(=O)CO", "note": "[dexamethasone]", "values": [
      {"measurement": "toxicity in this IBD model (literature)", "setting": "[5]", "value": "causes toxicity in this IBD model"}
    ]},
    {"compound": "C[C@]12C=CC(=O)C=C1CC[C@@H]1[C@@H]2[C@@H](O)C[C@@]2(C)[C@H]1C[C@H]1O[C@@H](c3ccc(Cc4cccc(N)c4)cc3)O[C@]12C(=O)CO", "note": "[free J payload]", "values": [
      {"measurement": "FKBP5 transcription in B cells", "setting": "FKBP5 [6]", "value": "robust increase in FKBP5 transcription"},
      {"measurement": "FKBP5 transcription in monocytes", "setting": "FKBP5 [7]", "value": "robust increase in FKBP5 transcription"}
    ]}
  ]
}
